US11161819B2, “Substituted tetrahydroisoquinoline compounds useful as GPR120 agonists” (Merck Sharp & Dohme Corp., priority 2016, dated 2021)

Molecular target: T1, human GPR120 (Homo sapiens, UniProt Q5NUL3)
T1 construct: expressed in transfected cells
T1 sequence (Q5NUL3 1-361): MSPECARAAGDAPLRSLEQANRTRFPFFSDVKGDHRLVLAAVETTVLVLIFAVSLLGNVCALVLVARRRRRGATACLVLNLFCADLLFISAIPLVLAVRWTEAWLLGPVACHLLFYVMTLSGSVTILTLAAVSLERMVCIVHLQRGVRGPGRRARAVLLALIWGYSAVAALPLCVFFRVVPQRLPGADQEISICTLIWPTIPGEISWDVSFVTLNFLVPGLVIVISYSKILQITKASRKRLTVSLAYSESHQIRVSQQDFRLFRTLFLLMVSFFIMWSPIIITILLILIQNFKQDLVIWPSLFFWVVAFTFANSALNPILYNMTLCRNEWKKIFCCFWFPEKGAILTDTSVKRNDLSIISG
Assay: Human GPR120 IP1 Assay (inositol phosphate turnover, CisBio IP-One kit)
Type: cell-based
Conditions: IP1 accumulation in CHO-K1 cells stably expressing the short form of human GPR120; 60 min compound incubation; 4-parameter fit; read-out: hGPR120 EC50
Procedure, shortened: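 CHO-K1 cells stably expressing short-form human GPR120 were stimulated with compounds for 60 minutes at 37 degrees in stimulation buffer. IP1 accumulation measured by HTRF competitive immunoassay (665/620 nm ratio) against an IP1 standard curve, normalized to a reference compound; EC50 from 4-parameter fit.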

Structure (SMILES) | EC50 [nM]
COc1cc(Cl)c(N2CCc3cc(CCC(=O)O)ccc3C2)cc1OC1CCC1 [Example 24, 3-{2-[2-chloro-5-(cyclobutyloxy)-4-methoxyphenyl]-1,2,3,4-tetrahydroisoquinolin-6-yl}propanoic acid] | 61
N#Cc1c(F)cc(OC(F)(F)F)cc1N1CCc2cc(CCC(=O)O)ccc2C1 [Example 44, 3-{2-[2-cyano-3-fluoro-5-(trifluoro-methoxy)phenyl]-1,2,3,4-tetra-hydroisoquinolin-6-yl}propanoic acid] | 2360
Cc1cc(-c2cscn2)nc(N2CCc3c(ccc(CCC(=O)O)c3F)C2)c1C#N [Example 147, 3-[2-(3-Cyano-4-methyl-6-thiazol-4-yl-pyridin-2-yl)-5-fluoro-1,2,3,4-tetrahydro-isoquinolin-6-yl]-propionic acid] | 141
O=C(O)[C@H]1C[C@@H]1c1ccc2c(c1F)CCN(c1cc(OC(F)(F)F)cc(F)c1Cl)C2 [Example 124, (1S,2S)-2-{2-[2-chloro-3-fluoro-5-(trifluoromethoxy)phenyl]-5-fluoro-1,2,3,4-tetrahydro-isoquinolin-6-yl}cyclopropane-carboxylic acid] | 824
CO[C@H]1C[C@H](Oc2cc(F)c(F)c(N3CCc4cc(CCc5nnn[nH]5)ccc4C3)c2)C1 [Example 132, 6-(2-(1H-tetrazol-5-yl)ethyl)-2-(2,3-difluoro-5-((1r,3r)-3-methoxylcyclobutoxy)-phenyl)-1,2,3,4-tetrahydroisoquinoline] | 406
CC1c2ccc(CCC(=O)O)cc2CCN1c1cc(OC2CCC2)ccc1F (stereo not shown) [Example 36, 3-{2-[5-(cyclobutyloxy)-2-fluorophenyl]-1-methyl-1,2,3,4-tetrahydroisoquinolin-6-yl}propanoic acid] | 348
Cc1ccc(-n2nc(C)c(C#N)c2N2CCc3cc(O)ccc3C2)cc1 [Example 129, 5-(6-hydroxy-3,4-dihydroisoquinolin-2(1H)-yl)-3-methyl-1-(p-tolyl)-1H-pyrazole-4-carbonitrile] | 92
N#Cc1c(F)cc(OC2CCC2)cc1N1CCc2c(ccc(CCC(=O)O)c2F)C1 [Example 155, 3-{2-[2-cyano-5-(cyclobutyloxy)-3-fluorophenyl]-5-fluoro-1,2,3,4-tetrahydroisoquinolin-6-yl}-propanoic acid] | 17
Cc1ccc(-n2nc(C)c(C#N)c2N2CCc3cc(C(C)CCCC(=O)O)ccc3C2)cc1 (single isomer, unassigned) [Example 140, 5-{2-[4-cyano-3-methyl-1-(4-methylphenyl)-1H-pyrazol-5-yl]-1,2,3,4-tetrahydroisoquinolin-6-yl} hexanoic acid] | 209
CC1c2ccc(CCC(=O)O)cc2CCN1c1cc(OC2CCC2)ccc1F (stereo not shown) [Example 39, 3-{2-[5-(cyclobutyloxy)-2-fluorophenyl]-1-methyl-1,2,3,4-tetra-hydroisoquinolin-6-yl}propanoic acid] | 417
COc1cc(F)c(N2CCc3cc(CCC(=O)O)ccc3C2)cc1OC1CCC1 [Example 31, 3-{2-[5-(cyclobutyloxy)-2-fluoro-4-methoxyphenyl]-1,2,3,4-tetrahydroisoquinolin-6-yl}-propanoic acid] | 182
N#Cc1c(F)cc(OC2CCC2)cc1N1CCc2c(ccc(CCC(=O)O)c2Cl)C1 [Example 153, 3-{5-chloro-2-[2-cyano-5-(cyclobutyloxy)-3-fluorophenyl]-1,2,3,4-tetrahydroisoquinolin-6-yl}-propanoic acid] | 87
CO[C@H]1C[C@H](Oc2cc(F)c(F)c(N3CCc4c(ccc([C@@H]5C[C@H]5C(=O)O)c4F)C3)c2)C1 [Example 110, (1R,2R)-2-(2-{2,3-difluoro-5-[(trans-3-methoxycyclobutyl)oxy]phenyl}-5-fluoro-1,2,3,4-tetrahydroisoquinolin-6-yl)-cyclopropanecarboxylic acid] | 42
O=C(O)[C@@H]1C[C@H]1c1ccc2c(c1)CCN(c1cc(OC3CCC3)cc(F)c1F)C2 [Example 85, (1R,2R)-2-{2-[5-(cyclobutyloxy)-2,3-difluorophenyl]-1,2,3,4-tetra-hydroisoquinolin-6-yl}cyclo-propane-carboxylic acid] | 40
C[C@H]1C[C@H](Oc2cc(F)c(F)c(N3CCc4c(ccc([C@H]5C[C@@H]5C(=O)O)c4F)C3)c2)C1 [Example 122, (1S,2S)-2-(2-{2,3-difluoro-5-[(trans-3-methylcyclobutyl)oxy]phenyl}-5-fluoro-1,2,3,4-tetrahydro-isoquinolin-6-yl)cyclopropane-carboxylic acid] | 121
CC(Cc1ccc2c(c1F)CCN(c1cc(OC3CCC3)cc(F)c1C#N)C2)C(=O)O (stereo not shown) [Example 79, 3-(2-(2-cyano-5-cyclobutyloxy-3-fluorophenyl)-5-fluoro-1,2,3,4-tetra hydroisoquinolin-6-yl)-2-methyl-propanoic acid] | 471
Cc1cnc(Oc2cc(Cl)c(F)c(N3CCc4cc(CCC(=O)O)ccc4C3)c2)s1 [Example 9] | 20
C[C@H]1C[C@H](Oc2cc(F)c(F)c(N3CCc4c(ccc([C@H]5C[C@@H]5C(=O)O)c4F)C3)c2)C1 [Example 108, (1S,2S)-2-(2-(2,3-difluoro-5-((1r,3S)-3-methylcyclobutoxy)phenyl)-5-fluoro-1,2,3,4-tetra-hydroisoquinolin-6-yl)cyclopropanecarboxylic acid] | 122
COc1cc(O[C@H]2C[C@H](OC)C2)cc(N2CCc3cc([C@H]4C[C@@H]4C(=O)O)ccc3C2)c1C#N [Example 97, (1S,2S)-2-(2-{2-cyano-3-methoxy-5-[(trans-3-methoxycyclobutyl)oxy]phenyl}-1,2,3,4-tetrahydroisoquinolin-6-yl) cyclopropanecarboxylic acid] | 1580
CO[C@H]1C[C@H](Oc2cc(F)c(F)c(N3CCc4c(ccc(CCC(=O)O)c4F)C3)c2)C1 [Example 66, 3-(2-{2,3-difluoro-5-[(trans-3-methoxycyclobutyl)oxy]phenyl}-5-fluoro-1,2,3,4-tetrahydroisoquino-lin-6-yl)-propanoic acid] | 41
O=C(O)CCc1cc2c(cc1F)CN(c1cc(OC3CCC3)cc(F)c1F)CC2 [Example 131, 3-(2-(5-cyclobutoxy-2,3-difluorophenyl)-7-fluoro-1,2,3,4-tetrahydro-isoquinolin-6-yl)propanoic acid] | 174
O=C(O)CCc1ccc2c(c1F)CCN(c1cc(OC3CCC3)ccc1F)C2 [Example 61, 3-(2-(5-cyclobutoxy-2-fluorophenyl)-5-fluoro-1,2,3,4-tetrahydro-isoquinolin-6-yl)-propanoic acid] | 28
Cc1nc(OC2CCC2)nc(N2CCc3c(ccc(CCC(=O)O)c3F)C2)c1C#N [Example 152, 3-{2-[5-cyano-2-(cyclobutyloxy)-6-methylpyrimidin-4-yl]-5-fluoro-1,2,3,4-tetrahydroisoquino-lin-6-yl}propanoic acid] | 69
CC(CC(=O)O)c1ccc2c(c1)CCN(c1cc(OC(F)(F)F)ccc1F)C2 (stereo not shown) [Example 7, 3-(2-(2-fluoro-5-(trifluoromethoxy)phenyl)-1,2,3,4-tetrahydroisoquinolin-6-yl)butanoic acid] | 533
O=C(O)CCc1ccc2c(c1F)CCN(c1cccc(C3CC3)n1)C2 [Example 154, 3-[2-(6-cyclopropylpyridin-2-yl)-5-fluoro-1,2,3,4-tetrahydroiso-quinolin-6-yl]propanoic acid] | 167
